Laboratory results: patent US7384971B2, “Phytochemicals for the treatment of cervical dysplasia” (BioResponse L.L.C., priority 1999, dated 2008)

Experiments:
women with mastalgia = settings: cited from earlier work
women with endometriosis = settings: endometriosis therapy; cited from earlier work
[1] = tested on: 2-hydroxy estrogen metabolism; settings: women; cited from earlier work
[2] = tested on: recurrent laryngeal papillomatosis and cervical dysplasia; settings: dietary supplementation; cited from earlier work
[3] = tested on: person with chronic recurring breast pain (mastalgia); assay: Case study: processed DIM for chronic recurring breast pain (Example 5); format: in vivo, human; set-up: key to Typical Breast Pain Score / Typical Breast Soreness Score: 0 = none; 1 = mild; 2 = moderate; 3 = significant; 4 = severe; settings: After DIM, 225 mg per day, one month
Excerpt: The purpose of this study was to determine whether dietary supplementation with the cruicferous phytochemical, Diindolylmethane (DIM) is effective in relieving the pain of this chronic condition. patient one is a person referred for evaluation of perimenopausal symptoms of chronic recurring breast pain. They had been troubled by breast pain for many years with recent worsening in their symptoms. They had undergone a vaginal hysterectomy due to excessive and painful menstrual periods. Since their ovaries were left intact, they have received no Hormonal Replacement Therapy (HRT). During the last 4 years they experienced a monthly cycle of breast pain for about one week of each month. The breast pain was bilateral, associated with significant tenderness to touch, and a discomfort described as “heaviness or swelling.” A trial of a women's health supplement containing Don Quai provided no relief. Evaluation included a baseline morning urine sample and close assessment of their symptoms of breast pain during the ensuing month. Following this, bioavailable DIM was begun as a supplement at 225 mg per day together with increased dietary fiber. […] A second urine sample was obtained after one month on the DIM supplement.

serum Ca-125 antigen = assay: Serial serum Ca-125 antigen levels in endometriosis patient; format: in vivo, human
Excerpt: Diagnosis of the endometriosis and reduction in pain severity correlated with serial levels of serum Ca-125 antigen. Ca-125 is a serum marker with documented usefulness in monitoring the activity of endometriosis in a given patient (Pittaway D E and Fayez J A, 1986, “The use of CA-125 in the diagnosis and management of endometriosis”, Fertil Steril 46:790).

[4] = tested on: person with severe endometriosis; assay: Case study: processed DIM for endometriosis pain (Example 8); format: in vivo, human
Excerpt: patient two is a slender and athletic person who sought alternatives in their management of severe endometriosis. Their symptoms of recurrent mid-cycle and menstrually associated pain have been diagnosed as due to endometriosis based on pelvic laparoscopy. This procedure confirmed aggressive endometriosis with ectopic endometrial implants removed from the pelvis and associated with intestinal serosal spread. A history of 2 years of intense pelvic pain at mid-cycle and during menstrual flow was reported prior to the laparoscopy. Their parent gives a history of painful menstrual periods […]. They went on to develop ovarian cancer requiring radical surgery […]. A maternal aunt developed cervical cancer requiring surgery. […] Like the patient, a younger sibling has been troubled with painful menstrual periods and pelvic pain leading to laparoscopy and the diagnosis of endometriosis.
Following the patient's laparoscopy, one menstrual period was still associated with significant pain. Supplementation with bioavailable processed DIM was begun approximately 6 weeks following the laparoscopy. Initial supplementation with bioavailable processed DIM provided 300 mg/day for one month which was reduced to 150 mg/day thereafter. […] The patient continued DIM supplementation for about one year.

[5] = tested on: non-cancerous colon cells; settings: cited from earlier work
colon cancer cells = settings: cited from earlier work
MCF7 breast cancer cells = settings: tested in the absence of estrogen; cited from earlier work
[6] = tested on: carcinogen-induced breast cancer; settings: oral; cited from earlier work
[7] = tested on: 2-hydroxy and 16-hydroxy estrogen metabolites; assay: Urinary estrogen metabolites, Elisa based assay (Estratest); format: in vivo, human; settings: After DIM, 225 mg per day
Procedure: Evaluation included a baseline morning urine sample and close assessment of their symptoms of breast pain during the ensuing month. Following this, bioavailable DIM was begun as a supplement at 225 mg per day together with increased dietary fiber. […] A second urine sample was obtained after one month on the DIM supplement.
The urine samples were subsequently analyzed for their levels of 2-hydroxy and 16-hydroxy estrogen metabolites, using an Elisa based assay (Estratest, Immunacare, Inc., Bethlehem, Pa.).

[8] = Follow up Visit #3, Use of DIM YES
[9] = Follow-up Visit #1, Use of DIM YES
[10] = Follow-up Visit #2, Use of DIM YES

SMILES: C#C[C@]1(O)CC[C@H]2[C@@H]3CCC4=Cc5oncc5C[C@]4(C)[C@H]3CC[C@@]21C [Danazol]
- Response rate in mastalgia (women with mastalgia; severe breast pain): 70%
- Women experiencing adverse side effects (women with endometriosis): up to 80%

SMILES: CC(=O)O[C@]1(C(C)=O)CC[C@H]2[C@@H]3C[C@H](C)C4=CC(=O)CC[C@]4(C)[C@H]3CC[C@@]21C [medroxyprogesterone acetate]
- Relief of mastalgia versus placebo (women with mastalgia; controlled trial): no better than placebo

SMILES: OCc1c[nH]c2ccccc12 [I3C, Indole-3-carbinol]
- Effect on 2-hydroxy estrogen metabolism [1]: increase 2-hydroxy estrogen metabolism
- Clinical outcome [2]: some clinical improvement

SMILES: c1ccc2c(Cc3c[nH]c4ccccc34)c[nH]c2c1 [DIM, 3,3′-Diindolylmethane]
- Typical Breast Soreness Score (in words) [3]: Absent
- Typical Breast Pain Score (in words) ([3]; one patient): Absent
- Typical Breast Pain Score ([3]; score out of 4): 0/4
- Typical Breast Soreness Score ([3]; score out of 4): 0/4
- Ca-125 Antigen (serum Ca-125 antigen; [8]): 34.0
- Ca-125 Antigen (serum Ca-125 antigen; [9]): 26.4
- Ca-125 Antigen (serum Ca-125 antigen; [10]): 23.2
- Pain Level [4, 8]: Improved
- Pain Level [4, 9]: Improved
- Pain Level [4, 10]: Improved
- Comfort of menstrual periods / need for analgesics ([4]; supplementation for about one year): more comfortable, no longer requiring analgesics
- Growth inhibitory activity [5]: not observed
- Effect on cell growth (colon cancer cells): selective growth inhibitory activity
- Effect on cell growth (MCF7 breast cancer cells): promoted growth
- Effect on tumor growth [6]: impede the growth
- 2-Hydroxy estrone level, urinary ([7]; morning urine after one month): 26.4 ng/ml/mg Creatinine
- 2-Hydroxy to 16-Hyroxy estrone ratio ([7]; urine after one month): 5.08
- 16-Hydroxy estrone level, urinary ([7]; urine after one month): 5.1 ng/ml/mg Creatinine
- Total urinary estrone metabolites ([7]; urine after one month): 31.3 ng/ml/mg Creatinine
